According to the supplement of paper PMC10307832:

Tests used:
Test in all cases: relative viability (nuclei count vs DMSO), 5 days (fraction); higher = more cells survive
4EGI-1 + Decitabine = compound: O=C(O)C(Cc1ccccc1[N+](=O)[O-])=NNc1nc(-c2ccc(Cl)c(Cl)c2)cs1 (mixture of isomers) [4EGI-1] + Nc1ncn([C@H]2C[C@H](O)[C@@H](CO)O2)c(=O)n1 [Decitabine] (partner 2 µM)
In short: (§1)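 Relative viability equals treated-well nuclei counts divided by vehicle-well nuclei counts. Counts came from 4× images of lung cancer cell lines grown in 1536-well plates for 5 days after pin-tool dosing on the day after seeding. Dosing used one drug alone or a fixed anchor-drug dose plus five library-drug doses (not always all listed) in √10 steps, and values are medians of duplicate plates.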

XMD8-85 + Olaparib = compound: CN1CCN(CC1)C2=CC(=C(C=C2)NC3=NC=C4C(=N3)N(C5=CC=CC=C5C(=O)N4C)C)OC [XMD8-85] + O=C(c1cc(Cc2n[nH]c(=O)c3ccccc23)ccc1F)N1CCN(C(=O)C2CC2)CC1 [Olaparib] (partner 8 µM)
In short: as §1

4EGI-1 + Tozasertib = compound: O=C(O)C(Cc1ccccc1[N+](=O)[O-])=NNc1nc(-c2ccc(Cl)c(Cl)c2)cs1 (mixture of isomers) [4EGI-1] + Cc1cc(Nc2cc(N3CCN(C)CC3)nc(Sc3ccc(NC(=O)C4CC4)cc3)n2)n[nH]1 [Tozasertib] (partner 0.1 µM)
In short: as §1

XMD8-85 + Lapatinib = compound: CN1CCN(CC1)C2=CC(=C(C=C2)NC3=NC=C4C(=N3)N(C5=CC=CC=C5C(=O)N4C)C)OC [XMD8-85] + CS(=O)(=O)CCNCc1ccc(-c2ccc3ncnc(Nc4ccc(OCc5cccc(F)c5)c(Cl)c4)c3c2)o1 [Lapatinib] (partner 2 µM)
In short: as §1

Cell Line	relative viability (4EGI-1 + Decitabine; first compound 0.5 µM)	relative viability (4EGI-1 + Decitabine; first compound 1.581 µM)	relative viability (4EGI-1 + Decitabine; first compound 5 µM)	relative viability (4EGI-1 + Decitabine; first compound 15.81 µM)	relative viability (4EGI-1 + Decitabine; first compound 50 µM)	relative viability (XMD8-85 + Olaparib; first compound 0.08 µM)	relative viability (XMD8-85 + Olaparib; first compound 0.253 µM)	relative viability (XMD8-85 + Olaparib; first compound 0.8 µM)	relative viability (XMD8-85 + Olaparib; first compound 2.53 µM)	relative viability (XMD8-85 + Olaparib; first compound 8 µM)	relative viability (4EGI-1 + Tozasertib; first compound 0.5 µM)	relative viability (4EGI-1 + Tozasertib; first compound 1.581 µM)	relative viability (4EGI-1 + Tozasertib; first compound 5 µM)	relative viability (4EGI-1 + Tozasertib; first compound 15.81 µM)	relative viability (4EGI-1 + Tozasertib; first compound 50 µM)	relative viability (XMD8-85 + Lapatinib; first compound 0.08 µM)	relative viability (XMD8-85 + Lapatinib; first compound 0.253 µM)	relative viability (XMD8-85 + Lapatinib; first compound 0.8 µM)	relative viability (XMD8-85 + Lapatinib; first compound 2.53 µM)	relative viability (XMD8-85 + Lapatinib; first compound 8 µM)
COR-L23	0.473	0.343	0.474	0.291	0.171	0.369	0.319	0.421	0.302	0.236	0.215	0.145	0.189	0.157	0.0963	0.896	1.09	1.11	1.08	0.913
NCI-H1395	0.746	–	0.817	0.695	0.515	0.421	0.426	0.43	0.474	0.452	0.868	0.637	0.764	0.711	0.477	0.9	1.11	0.927	0.95	0.679
LOU-NH91	0.841	–	0.815	0.658	0.686	0.944	0.922	0.917	0.92	0.695	0.671	–	0.666	0.432	0.69	–	0.736	0.76	0.761	0.57
NCI-H2405	0.791	–	0.755	0.734	0.478	0.908	0.919	0.949	0.859	0.817	0.723	0.645	0.815	0.789	0.839	1.04	1.18	1.13	1.1	0.636
SK-LU-1	0.682	0.65	0.653	0.48	0.367	0.482	0.509	–	0.417	0.391	0.374	0.335	0.381	0.259	0.227	0.549	0.892	0.852	1.07	0.699
NCI-H838	0.469	0.509	0.389	0.312	0.238	0.796	0.749	0.898	0.778	0.279	0.261	–	0.263	0.235	0.172	0.942	1.05	1.09	0.967	0.45
HCC-15	0.89	0.723	0.675	0.527	0.217	0.745	0.67	0.7	0.699	0.64	0.331	0.377	0.5	0.308	0.155	0.851	0.879	0.863	0.948	0.747
EPLC-272H	0.45	–	0.359	0.31	0.305	0.853	0.579	0.747	0.458	0.387	0.288	–	0.297	0.172	0.193	–	0.824	1.02	0.905	0.566
NCI-H1755	0.718	0.676	0.654	0.697	0.618	0.974	0.906	0.862	0.85	0.899	0.625	0.569	0.525	0.486	0.355	0.943	1.1	1.05	1.17	0.996
EMC-BAC-2	1.21	–	0.972	0.904	0.436	0.498	0.465	0.487	0.477	0.417	0.324	0.262	0.329	0.312	0.26	0.914	0.847	0.945	0.944	0.835
201T	0.871	0.859	0.886	0.826	0.615	0.889	0.811	0.886	0.866	0.73	1.01	0.91	0.905	0.771	0.475	1.07	1.01	1.02	1	0.828
HARA	0.446	0.511	0.692	0.366	0.167	1.28	0.581	0.698	0.387	0.399	0.129	0.121	0.101	0.105	0.0717	0.761	0.781	0.907	0.787	0.569
LC-2-ad	0.876	0.859	0.742	0.587	0.444	0.771	0.687	0.701	0.581	0.415	0.415	–	0.483	0.347	0.232	1.03	0.976	0.984	1	0.702
